Assay [1] deals with expressed bovine cGB-PDE cDNA protein product (Bos taurus, UniProt Q28156). The assay is described as follows: cGMP phosphodiesterase activity of extracts of COS cells transfected with bovine cGB-PDE, in presence of PDE inhibitors. The format is biochemical.
Description: The reaction mixture was incubated for 10 minutes at 30° C., and then stopped by boiling. Next, 10 μl of 10 mg/ml Crotalus atrox venom (Sigma) was added followed by a 10 minute incubation at 30° C.
Another assay deals with T1, bovine cGB-PDE (Bos taurus, UniProt Q28156).
T1 construct: which contains the entire coding region of cGB-8; made in house; host or cells: COS-7 cells, whole-cell extract
The assay is described as follows: [3H]cGMP-binding assay of extracts of COS-7 cells transfected with pCDM8-cGB-PDE. As to the method: Cell extracts were assayed for [^3H]cGMP-binding activity in the absence or presence of 0.2 mM 3-isobutyl-1-methylaxanthine (IBMX) (Sigma), a competitive inhibitor of cGMP hydrolysis. The cGMP binding assay, modified from the assay described in Thomas I, supra, was conducted in a total volume of 80 μl. […] Assays were carried out in the absence and presence of 0.2 mM IBMX. The reaction was initiated by the addition of the cell extract, and was incubated for 60 minutes at 0° C. Filtration of the reaction mixtures was carried out as described in Thomas I, supra. Blanks were determined by parallel incubations with homogenization buffer replacing cell extracts, or with a 100-fold excess of unlabelled cGMP.
Results of the assay are set out in FIG. 7. […] The ability of IBMX to stimulate cGMP binding 2-5 fold is a distinctive property of the cGMP-binding phosphodisterases.
Results are presented in FIG. 8 wherein cGMP binding in the absence of unlabelled competitor was taken as 100% and each data point represents the average of three separate determinations.

The next assay has as its target cGB-PDE (Bos taurus, UniProt Q28156). The assay is described as follows: Metal dependence of cGB-PDE PDE activity. It is filed as biochemical. As to the method: The catalytic domains of mammalian PDEs and a Drosophila PDE contain two tandem conserved sequences (HX3 HX24 26 E) that are typical Zn^2+-binding motifs in Zn^2+ hydrolases such as thermolysin (Vallee and Auld, Biochem., 29: 5647-5659 (1990)). cGB-PDE binds Zn^2+ in the presence of large excesses of Mg^2+, Mn^2+, Fe^2+, Fe^3+, Ca^2+ or Cd^2+. In the absence of added metal, cGB-PDE has a PDE activity that is approximately 20% of the maximum activity that occurs in the presence of 40 mM Mg^2+, and this basal activity is inhibited by 1,10-phenanthroline or EDTA. […] PDE activity is stimulated by addition of Zn^2+ (0.02-1 μM) or Co^2+([…]), but not by Fe^2+, Fe^3+, Ca^2+, Cd^2+, or Cu^2+. Zn increases the basal PDE activity up to 70% of the maximum stimulation produced by 40 mM Mg^2+. The stimulatory effect of Zn^2+ in these assays may be compromised by an inhibitory effect that is caused by Zn^2+ concentrations>1 μM. The Zn^2+-supported PDE activity and Zn^2+ binding by cGB-PDE occur at similar concentrations of Zn^2+ cGB-PDE thus appears to be a Zn^2+ hydrolase and Zn^2+ appears to play a critical role in the activity of the enzyme. See, Colbran et al., The FASEB J., 8: Abstract 2148 (Mar. 15, 1994).

Assay [2] has as its target T2, recombinant mouse PDE5 (Mus musculus, UniProt Q8CG03).
T2 construct: made in house; host or cells: HEK 293 cells, transient transfection; lysate supernatant or Mono Q fractions
As to the kind of experiment: PDE5 activity assay of recombinant mouse PDE5 expressed in HEK 293 cells. Particulars: for IC50: IC50 for sildenafil inhibition. The format is biochemical. As for the experimental part:
Phosphodiesterase assays were carried out according to established procedures. All assays were performed for 5 min (unless otherwise indicated) at 30° C. using different concentrations of cGMP (0.1-10 μM) as substrates. Protein concentrations were determined by the Coomassie Plus protein assay (Pierce).
Recombinant mouse PDE5 was expressed in HEK 293 cells. […] The cells were lysed in a small volume of homogenization buffer in order to obtain a concentrated extract, and then the cell extract was preincubated with 50 μM cGMP on ice without PDE inhibitors (filled triangles, FIGS. 11A and 11B) or with 0.2 μM sildenafil (filled circles, FIG. 11B). At different time points aliquots were diluted 1/400-1/500, and different amounts of diluted extract (additional dilution 1/5-1/10) were used for PDE5 activity assayed at 0.1 μM cGMP for 5 min at 30° C. An additional portion of 50 μM cGMP was added to the preincubation mixture at 60 min after the start of preincubation as indicated by an arrow (open triangles, FIG. 11A). PDE5 activity was expressed as pmol/min/μg of protein. […] The percent of 50 μM cGMP hydrolysis at different time points was measured using the PDE5 activity assay.
To investigate this further, PDE5 was preincubated of with 50 μM cGMP on ice and an aliquot was diluted and assayed with either 0.1 μM, 1.0 μM or […] cGMP for 5 min at 30° C. Data are expressed as fold activation of PDE5 activity after preincubation with 50 μM cGMP (FIG. 12A).
PDE5 activity was measured at 0.1 μM (FIG. 16A), 1.0 μM (FIG. 16B) or 10 μM cGMP (FIG. 16C). It was analyzed without any treatments (filled squares), or after preincubation with 50 μM cGMP on ice (filled triangles), or after preincubation with mAb/P3B2 for 30 min on ice (filled circles). Treatment of PDE5 with mAb/P3B2 for 30 min on ice preceded preincubation with 50 μM cGMP (open circles). PDE5 activity was expressed as […].
Kinetic and inhibitory characteristics of activated PDE5. […] FIG. 18A depicts a Lineweaver-Burk double-reciprocal plot (0.1-10 μM cGMP) of activated (after preincubation with cGMP on ice) (filled triangles) PDE5 and mAb/P3B2 treated PDE5 (filled circles). PDE5 activity was expressed as pmol/min/μg of protein. […] PDE5 activities, assayed at each substrate concentration without sildenafil, were expressed as 100%. Km, Vmax and IC50 values were calculated using GraphPad Prism 2.0 C (GraphPad Software, San Diego, Calif.).

In assay [3] the target is native cGB-PDE and WT cGB-PDE (Bos taurus, UniProt Q28156). As to the kind of experiment: cGMP-binding kinetics of native and recombinant wild type cGB-PDE. Also on record: species or system bovine.
A further assay has as its target D478A mutant cGB-PDE (Bos taurus, UniProt Q28156, D478A). The assay is described as follows: cGMP-binding kinetics of D478A mutant cGB-PDE. Set-up: species or system bovine.
The target in another assay is T3, recombinant PDE5 (Mus musculus, UniProt Q8CG03).
T3 construct: made in house; host or cells: HEK 293 cells, transient transfection; lysate supernatant or Mono Q fractions
The assay is described as follows: cGMP saturation binding assay (Millipore filter binding). Particulars: 0.01-20 μM cGMP, IBMX present, 30 min on ice. As for the experimental part: Binding studies were conducted by the Millipore filter binding assay in a total volume of 40 μl containing binding buffer (50 mM Tris-HCl, pH 7.5, 2.0 mM EDTA, 1 mM DTT, 100 mM NaCl) and 0.1 mM IBMX in the presence of 0.01 -20 μM ^3H-cGMP. In some experiments an additional 30 min preincubation of recombinant PDE5 with monoclonal antibodies (mAb/P3B2 or mAb/P4D8) was performed before addition of cGMP. Following a 30 min incubation on ice, 1 ml of ice cold binding buffer was added to the assays. The samples were immediately filtered through a Millipore HAWP nitrocellulose membrane (pore size 0.45 μM, 24 mm diameter) and rinsed three times with ice cold binding buffer (10 ml each). The filters were dissolved in 5 ml of Filter Count™ (Packard Instrument) and counted in a liquid scintillation counter.
The cGMP saturation binding assay was employed (FIG. 14) using recombinant PDE5 without (filled squares) or with preincubation with monoclonal antibodies mAb/P3B2 (filled circles) or mAb/P4D4 (filled triangles) for 30 min on ice, to determine the Kd for cGMP binding. The binding assays were performed with 0.01-20 μM cGMP in the presence of […] for 30 min on ice. The specific binding (cpm) is calculated by subtraction of nonspecific binding from total binding. […] A linear scatchard plot of the cGMP binding data indicated one class of cGMP-binding sites. […]

Assay [4] addresses T2, recombinant mouse PDE5. As to the kind of experiment: PDE5 activity assay of recombinant mouse PDE5 expressed in HEK 293 cells. The format is biochemical. Particulars: assayed at 10 μM cGMP.
Another assay addresses D289A mutant cGB-PDE (Bos taurus, UniProt Q28156, D289A). As to the kind of experiment: cGMP-binding kinetics of D289A mutant cGB-PDE.
Setting [5] is: activated PDE5 (preincubated with 50 μM cGMP).

Read-outs that look alike come from different tables or passages of the source.

Excerpt for D289A mutant cGB-PDE: This curvilinearity may have been due to the presence of distinct high affinity (slow) and low affinity (fast) sites of cGMP binding.

Turning to `CCCOc1ccccc1-c1nc2nn[nH]c2c(=O)[nH]1`, in assay [1], the IC50 (in general, the point on the concentration scale where inhibition reaches its midpoint) worked out at 2000 nM.
On to `CC(C)Cn1c(=O)n(C)c(=O)c2[nH]cnc21` [IBMX, 3-isobutyl-1-methylaxanthine], for which the “stimulation of cGMP binding” value at bovine cGB-PDE (0.2 mM IBMX, 1 μM [3H]cGMP) was “approximately 1.8 fold”.
For the compound `O=C(O)CN(CCN(CC(=O)O)CC(=O)O)CC(=O)O` [EDTA], the “effect on basal PDE activity in absence of added metal” value at cGB-PDE is listed as “inhibited”.
Turning to `c1cnc2c(c1)ccc1cccnc12` [1,10-phenanthroline], on cGB-PDE, the “effect on basal PDE activity in absence of added metal” value was “inhibited”.
Regarding `COc1ccc(C2CNC(=O)C2)cc1OC1CCCC1` (stereo not drawn) [rolipram], the IC50 in [1] is more than 300000 nM.
As to `CCCc1nn(C)c2c(=O)[nH]c(-c3cc(S(=O)(=O)N4CCN(C)CC4)ccc3OCC)nc12` [sildenafil], the “time PDE5 activation was sustained during preincubation with 50 μM cGMP” value on recombinant mouse PDE5 [2] (0.2 μM sildenafil in preincubation mixture) is “at least 90 min”. The IC50 at recombinant mouse PDE5 [2] (activated PDE5, assayed at 0.1 μM cGMP) was determined as 0.6 nM; on recombinant mouse PDE5 [2] (activated PDE5, assayed at 1.0 μM cGMP) it was 1.2 nM; on recombinant mouse PDE5 [2] (control PDE5, assayed at 0.1 μM cGMP), 2.1 nM; on recombinant mouse PDE5 [2] (control PDE5, assayed at 1.0 μM cGMP) it was 4.9 nM.
`Nc1nc2c(ncn2[C@@H]2O[C@@H]3COP(=O)(O)O[C@H]3[C@H]2O)c(=O)[nH]1` [cGMP]: the “excess concentration of unlabelled competitor required to inhibit [3H]cGMP binding by 50%” value on bovine cGB-PDE (2.5 μM [3H]cGMP) is “Less than 10 fold higher concentrations”. The Kd (as a rule, a measure of binding affinity in units of concentration) is approximately 2000 nM in assay [3], approximately 500 nM on D478A mutant cGB-PDE, 120 nM at recombinant PDE5 and more than 20000 nM at D289A mutant cGB-PDE (read-out: Kd of cGMP binding). In addition, the “t1/2 of single cGMP-dissociation rate” value at D478A mutant cGB-PDE was determined as 2.8 h. In addition, the Km (in general, the substrate concentration at which the rate is half of its maximum) at recombinant mouse PDE5 [2] (setting [5]) was determined as 0.96 µM; at recombinant mouse PDE5 [2] (non-activated PDE5 (mAb/P3B2 treated), read-out: Km for cGMP) it was 4.6 µM. Besides, the Vmax at recombinant mouse PDE5 [2] (setting [5]) is given as 27 pmol/min/μg of protein; on recombinant mouse PDE5 [2] (non-activated PDE5 (mAb/P3B2 treated)), 8.9 pmol/min/μg of protein. In addition, the “PDE5 activation after preincubation with 50 μM cGMP” value at recombinant mouse PDE5 [2] (assayed at 0.1 μM cGMP, 5 min 30° C., 15 min preincubation on ice) is 10 times; on recombinant mouse PDE5 [2] (assayed at 1.0 μM cGMP), 2-3 times; on recombinant mouse PDE5 [4], “not detectable”. In addition, the “t1/2 of single rate of cGMP-association” value on D289A mutant cGB-PDE turned out to be 0.5 h.

(Values after patent US20060222647A1, “Methods and compositions for modulating the activity of PDE5” (priority 1993, published 2006).)
